According to US20240409536A1, “COMPOUNDS AND METHODS FOR MODULATING SPLICING” (REMIX THERAPEUTICS INC., priority 2021, published 2024):
Where two headings read alike, the source gives them in different places.

Experiments:
HTT mRNA [1] = test: Splicing RT-qPCR assay, HTT canonical (CJ) and alternative (AJ) junction mRNA; type: cell-based; conditions: Homo sapiens, A673 or K562 cells, 24 hours
Procedure: (§1) Compounds described herein were used to modulate RNA transcript abundance in cells. The expression of a target mRNA was measured by detecting the formation of an exon-exon junction in the canonical transcript (CJ). A compound mediated exon-inclusion event was detected by observing an increase in formation of a new junction with an alternative exon (AJ). Real-time qPCR assays were used to detect these splicing switches and interrogate the potency of various compounds towards different target genes. A high-throughput real time quantitative PCR (RT-qPCR) assay was developed to measure these two isoforms of the mRNA (CJ and AJ) for exemplary genes, such as HTT, SMN2, and MYB, together with a control housekeeping gene, GAPDH or GUSB or PPIA, used for normalization. Briefly, the A673 or K562 cell line was treated with various compounds described herein (e.g., compounds of Formula (I), (I), or (III)). After treatment, the levels of the HTT, MYB, or SMN2 mRNA targets were determined from each sample of cell lysate by cDNA synthesis followed by qPCR.
(§2) • Cells-to-CT 1-step kit: ThermoFisher A25602, Cells-to-CT lysis reagent: ThermoFisher 4391851C, TaqMan™ Fast Virus 1-Step Master Mix: ThermoFisher 4444436 • GAPDH: VIC-PL, ThermoFisher 4326317E (Assay: Hs99999905_ml)—used for K562/suspension cell lines • GUSB: VIC-PL, ThermoFisher 4326320E (Assay: Hs99999908_ml)—used for K562/suspension cell lines • PPIA: VIC-PL, ThermoFisher 4326316E (Assay: Hs99999904_ml)—used for A673/adherent cell lines
(§3) The A673 cell line was cultured in DMEM with 10% FBS. Cells were diluted with full growth media and plated in a 96-well plate (15,000 cells in 100 ul media per well). The plate was incubated at 37° C. with 5% CO2 for 24 hours to allow cells to adhere. An 11-point 3-fold serial dilution of the compounds was made in DMSO then diluted in media in an intermediate plate. Compounds were transferred from the intermediate plate to the cell plate with the top dose at a final concentration of 10 uM in the well. Final DMSO concentration was kept at or below 0.25%. The cell plate was returned to the incubator at 37° C. with 5% CO2 for an additional 24 hours.
(§4) The K562 cell line was cultured in IMDM with 10% FBS. For K562, cells were diluted with full growth media and plated in either a 96-well plate (50,000 cells in 50 uL media per well) or a 384-well plate (8,000-40,000 cells in 45 uL media per well). An 11-point 3-fold serial dilution of the compounds were made in DMSO then diluted in media in an intermediate plate. Compound was transferred from the intermediate plate to the cell plate with the top dose at a final concentration of 10 uM in the well. Final DMSO concentration was kept at or below 0.25%. Final volume was 100 uL for 96-well plate and 50 uL for 384-well plate. The cell plate was then placed in an incubator at 37° C. with 5% CO2 for 24 hours.
(§5) The cells were then gently washed with 50 uL-100 uL cold PBS before proceeding to addition of lysis buffer. 30 uL-50 uL of room temperature lysis buffer with DNAse I (and optionally RNAsin) was added to each well. Cells were shaken/mixed thoroughly at room temperature for 5-10 minutes for lysis to take place and then 3 uL-5 uL of room temperature stop solution was added and wells were shaken/mixed again. After 2-5 minutes, the cell lysate plate was transferred to ice for RT-qPCR reaction setup. The lysates could also be frozen at −80° C. for later use.
(§6) In some cases, a direct lysis buffer was used. An appropriate volume of 3×lysis buffer (10 mM Tris, 150 mM NaCl, 1.5%-2.5% Igepal and 0.1-1 U/uL RNAsin, pH 7.4) was directly added to either K562 or A673 cells in media and mixed by pipetting 3 times. The plates were then incubated at room temperature with shaking/rocking for 20-50 minutes to allow for lysis to take place. After this time, the cell lysate plate was transferred to ice to set up for the RT-qPCR reactions. The lysates could also be frozen at −80° C. for later use. […]

MYB mRNA [2] = test: Splicing RT-qPCR assay, MYB canonical (CJ) and alternative (AJ) junction mRNA; type: cell-based; conditions: Homo sapiens, A673 or K562 cells, 24 hours
Procedure: as §1, §2, §3, §4, §5, §6

HTT mRNA [3] = test: Gene panel canonical junction qPCR assay, HTT CJ mRNA decrease; type: cell-based, human
Procedure: as §1
(§7) The data analysis was performed by first determining the ΔCt vs the housekeeper gene. This ΔCt was then normalized against the DMSO control (ΔΔCt) and converted to RQ (relative quantification) using the 2^(−ΔΔCt) equation. The RQ were then converted to a percentage response by arbitrarily setting an assay window of 3.5 and 4.0 ΔCt for HTT-CJ and MYB-CJ respectively and an assay window of 9 and 3 ΔCt for HTT-AJ and MYB-AJ in 96 well format (50,000 K562 cells/well and 15,000 A673 cells per well) and an assay window of 3 and 4 ΔCt for HTT-CJ and MYB-CJ respectively and an assay window of 5 and 3 ΔCt for HTT-AJ and MYB-AJ respectively in 384 well format (8,000 K562 cells/well example). […] The percentage response was then fitted to the 4 parametric logistic equation to evaluate the concentration dependence of compound treatment. The increase in AJ mRNA is reported as AC50 (compound concentration having […] in AJ increase) while the decrease in CJ mRNA levels is reported as IC50 (compound concentration having 50) response in CJ decrease).
(§8) Additional studies were carried out for a larger panel of genes using the protocol provided above. The junction between flanking upstream and downstream exons was used to design canonical junction qPCR assays. At least one of the forward primer, reverse primer or the CY5-labeled 5′ nuclease probe (with 3′ quencher such as ZEN/Iowa Black FQ) was designed to overlap with the exon junction to capture the CJ mRNA transcript. BLAST was used to confirm the specificity of the probeset and parameters such as melting temperature, GC content, amplicon size, and primer dimer formation are considered during their design. Data for the decrease in CJ mRNA levels for four exemplary genes (HTT, SMN2, MYB, and Target C) analyzed in this panel are reported as IC50 (compound concentration having […] in CJ decrease).
(§9) A summary of the results from the panel is illustrated in Tables 5A and 51B, wherein “A” represents an IC50 of less than 100 nM; “B” represents an IC50 of between 100 nM and 1 μM; and “C” represents an IC50 of between 1 μM and 10 μM; and “D” represents an IC50 of greater than 10 μM.

MYB mRNA [4] = test: Gene panel canonical junction qPCR assay, MYB CJ mRNA decrease; type: cell-based, human
Procedure: as §1, §7, §8, §9

SMN2 mRNA = test: Gene panel canonical junction qPCR assay, SMN2 CJ mRNA decrease; type: cell-based, human
Procedure: as §1, §7, §8, §9

Target C mRNA = test: Gene panel canonical junction qPCR assay, Target C CJ mRNA decrease; type: cell-based; conditions: Homo sapiens, decrease in CJ mRNA levels, read-out: Target C IC50
Procedure: as §1, §7, §8, §9

[5] = decrease in canonical junction mRNA
[6] = increase in alternative junction mRNA
[7] = Homo sapiens, decrease in CJ mRNA levels, read-out: HTT IC50
[8] = Homo sapiens, decrease in CJ mRNA levels, read-out: MYB IC50
[9] = Homo sapiens, decrease in CJ mRNA levels, read-out: SMN2 IC50

SMILES	IC50 (HTT mRNA [3]; [7]) [nM]	IC50 (MYB mRNA [4]; [8]) [nM]	IC50 (SMN2 mRNA; [9]) [µM]	other results
Cc1cn2cc(NC(=O)c3ccc(N4CCN(C)C(C)C4)c4ccnnc34)cc(F)c2n1 (centres unmarked) [Compound 129]				IC50 (HTT mRNA [1]; [5]): 1 to 10 µM; AC50 (HTT mRNA [1]; [6]): 1 to 10 µM; IC50 (MYB mRNA [2]; [5]): 100 to 1000 nM; AC50 (MYB mRNA [2]; [6]): 100 to 1000 nM; IC50 (HTT mRNA [3]; Homo sapiens, canonical junction qPCR, read-out: HTT IC50 (decrease in CJ mRNA levels)): 1000 to 10000 nM; IC50 (MYB mRNA [4]; Homo sapiens, canonical junction qPCR, read-out: MYB IC50 (decrease in CJ mRNA levels)): 100 to 1000 nM; IC50 (SMN2 mRNA; Homo sapiens, canonical junction qPCR, read-out: SMN2 IC50 (decrease in CJ mRNA levels)): < 0.1 µM
Cc1cn2nc(NC(=O)c3sc([C@@H]4CCN[C@H](C)C4)cc3F)cc(C)c2n1 [Compound 576]	100 to 1000	< 100	0.1 to 1	IC50 (Target C mRNA): 100 to 1000 nM
Cc1cn2cc(NC(=O)c3sc([C@H]4CCN[C@@H](C)C4)cc3F)cc(F)c2n1 [Compound 590]	100 to 1000	100 to 1000		IC50 (Target C mRNA): 100 to 1000 nM
COc1cc(N2CCNC(C)C2)sc1C(=O)Nc1cc(F)c2nc(C)cn2c1 (centres unmarked) [Compound 597]	> 10000	100 to 1000		IC50 (Target C mRNA): > 10000 nM
Cc1cn2cc(NC(=O)c3sc(N4CCNC(C)C4)cc3F)cc(F)c2n1 (centres unmarked) [Compound 601]	1000 to 10000	100 to 1000		IC50 (Target C mRNA): 1000 to 10000 nM
CCC1CN(c2cc(F)c(C(=O)Nc3cc(F)c4nc(C)cn4c3)s2)CCN1 (centres unmarked) [Compound 603]	1000 to 10000	100 to 1000		IC50 (Target C mRNA): > 10000 nM
Cc1cn2cc(NC(=O)c3sc(N4C[C@H]5CC[C@@H](C4)N5)cc3F)cc(F)c2n1 [Compound 616]	> 10000	1000 to 10000	> 10	
Cc1cn2cc(NC(=O)c3sc(C4C[C@@H](C)N[C@@H](C)C4)cc3F)cc(F)c2n1 (some centres unmarked) [Compound 620]	1000 to 10000	100 to 1000	1 to 10	
Cc1nc2c(F)cc(NC(=O)c3sc(N4CCNC(C)C4)cc3F)cc2s1 (centres unmarked) [Compound 638]	> 10000	> 10000	< 0.1	
Cc1cn2cc(NC(=O)c3sc(C4CCNCC4)c(C)c3F)cc(F)c2n1 [Compound 649]	100 to 1000	100 to 1000	1 to 10	
Cc1cn2cc(NC(=O)c3sc(C4CCNCC4)cc3F)cc(F)c2n1 [Compound 650]				IC50 (HTT mRNA [3]; decrease in CJ mRNA levels, read-out: HTT IC50): 1000 to 10000 nM; IC50 (MYB mRNA [4]; decrease in CJ mRNA levels, read-out: MYB IC50): 100 to 1000 nM; IC50 (SMN2 mRNA; decrease in CJ mRNA levels, read-out: SMN2 IC50): > 10 µM
Cc1cn2cc(NC(=O)c3sc(C4CCNCC4)cc3F)cc(Cl)c2n1 [Compound 654]	100 to 1000	1000 to 10000	1 to 10	
Cn1cc2ccc(NC(=O)c3sc(C4CCNCC4)cc3F)cc2n1 [Compound 655]	100 to 1000	< 100	1 to 10	
Cn1cc2c(F)cc(NC(=O)c3sc(C4CCNCC4)cc3F)cc2n1 [Compound 656]	100 to 1000	< 100	1 to 10	
Cc1cn2cc(NC(=O)c3cc(F)c(C4CCNCC4)s3)cc(F)c2n1 [Compound 661]	> 10000	1000 to 10000		IC50 (Target C mRNA): > 10000 nM
Cc1cn2nc(NC(=O)c3sc(C4CCNCC4)cc3F)cc2c(C)n1 [Compound 664]	> 10000	> 10000	> 10	
Cc1cn2cc(NC(=O)c3cc(Cl)c(C4CCNCC4)s3)cc(F)c2n1 [Compound 666]	1000 to 10000	100 to 1000	1 to 10	
Cc1cn2cc(NC(=O)c3sc(C4CCNCC4)cc3F)nc2c(C)n1 [Compound 667]	> 10000	> 10000	> 10	
Cc1cn2cc(NC(=O)c3sc([C@@H]4CCN[C@H](C)C4)cc3F)cc(C(F)(F)F)c2n1 [Compound 668]	> 10000	1000 to 10000	> 10	
Cc1cn2cc(NC(=O)c3sc([C@H]4CCN[C@H](C)C4)cc3F)cc(C(F)(F)F)c2n1 [Compound 669]	100 to 1000	< 100	> 10	
Cc1cn2cc(NC(=O)c3sc(C4CCNCC4)c(C#N)c3Cl)cc(F)c2n1 [Compound 670]	1000 to 10000	100 to 1000	> 10	
Cc1cn2cc(-c3sc(C(=O)NC4CCNCC4)c(Cl)c3C#N)cc(F)c2n1 [Compound 671]	1000 to 10000	100 to 1000	> 10	
